Results from US20090018134A1, “Compounds - 945” (AstraZeneca AB, priority 2007, published 2009).

Target: T1, mTOR (Homo sapiens, UniProt P42345)
T1 construct: FLAG; made in house
Assay: In Vitro mTOR Kinase Assay (Echo), Test (a)(ii)
Assay type: biochemical
Details: table of enzyme assay Test (a)(ii); read-out: Test (a)(ii) IC50
In short: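 FLAG-tagged truncated mTOR (residues 1362-2549), expressed in HEK293 and purified via the FLAG tag, phosphorylated a biotinylated peptide over 2 hours at room temperature. EDTA stopped the reaction. Phospho-T389 was detected overnight by AlphaScreen using the p70 S6K T389 antibody with Protein A/streptavidin beads; IC50 reported.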

T1 sequence (P42345 1362-2549): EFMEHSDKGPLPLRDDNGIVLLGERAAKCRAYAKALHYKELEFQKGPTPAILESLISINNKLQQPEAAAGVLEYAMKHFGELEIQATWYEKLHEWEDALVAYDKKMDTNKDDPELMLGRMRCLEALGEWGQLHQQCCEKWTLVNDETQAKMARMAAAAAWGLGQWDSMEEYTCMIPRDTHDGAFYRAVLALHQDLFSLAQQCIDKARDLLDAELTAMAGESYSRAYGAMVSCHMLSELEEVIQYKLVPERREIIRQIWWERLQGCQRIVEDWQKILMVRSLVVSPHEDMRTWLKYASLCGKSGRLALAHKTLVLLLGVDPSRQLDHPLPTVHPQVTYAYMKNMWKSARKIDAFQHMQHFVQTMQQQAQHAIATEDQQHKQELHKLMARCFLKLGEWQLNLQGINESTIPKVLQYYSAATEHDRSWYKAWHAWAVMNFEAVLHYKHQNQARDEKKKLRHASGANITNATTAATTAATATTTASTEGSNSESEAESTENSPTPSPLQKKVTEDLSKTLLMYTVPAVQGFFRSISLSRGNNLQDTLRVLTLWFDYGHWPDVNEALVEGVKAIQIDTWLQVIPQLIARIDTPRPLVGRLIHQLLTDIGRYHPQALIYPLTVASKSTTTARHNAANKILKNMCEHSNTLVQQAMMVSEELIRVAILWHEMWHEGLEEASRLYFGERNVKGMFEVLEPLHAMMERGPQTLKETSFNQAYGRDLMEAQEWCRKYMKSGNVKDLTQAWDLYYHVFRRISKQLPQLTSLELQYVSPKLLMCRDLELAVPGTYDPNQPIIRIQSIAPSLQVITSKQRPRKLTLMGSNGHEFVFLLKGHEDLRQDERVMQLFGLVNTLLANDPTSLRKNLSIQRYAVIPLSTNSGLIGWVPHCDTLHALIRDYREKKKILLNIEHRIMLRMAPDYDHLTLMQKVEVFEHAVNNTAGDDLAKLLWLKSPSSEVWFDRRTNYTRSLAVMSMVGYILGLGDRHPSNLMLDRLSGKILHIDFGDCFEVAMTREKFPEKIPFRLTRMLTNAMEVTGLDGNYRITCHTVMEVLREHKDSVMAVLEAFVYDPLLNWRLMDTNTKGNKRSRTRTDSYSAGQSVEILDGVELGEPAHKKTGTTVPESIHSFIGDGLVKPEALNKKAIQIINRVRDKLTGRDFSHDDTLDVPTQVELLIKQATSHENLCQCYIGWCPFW

Row | Structure (SMILES) | IC50 [nM]
1 | C[C@H]1COCCN1c1cc(C2(S(C)(=O)=O)CC2)nc(-c2ccc(NC(=O)NCC(F)F)cc2)n1 [Example 64ab, 3-(2,2-difluoroethyl)-1-[4-[4-[(3S)-methylsulfonylcyclopropyl)pyrimi-din-2-yl]phenyl]urea] | 9.4
2 | Cc1csc(S(=O)(=O)C2(c3cc(N4CCOC[C@@H]4C)nc(-c4ccc(NC(=O)N[C@@H](C)CO)cc4)n3)CC2)n1 [Example 64ac, 3-[(2S)-1-hydroxypropan-2-yl]-1-[4-[4-[(3S)-3-methylmorpholin-4-yl]-6-[1-[(4-methyl-1,3-thiazol-2-yl)sulfonyl]cyclopropyl]pyrimidin-2-yl]phenyl]urea] | 5.29
3 | Cc1csc(S(=O)(=O)C2(c3cc(N4CCOC[C@@H]4C)nc(-c4ccc(NC(=O)NCCF)cc4)n3)CC2)n1 [Example 64ae, 3-(2-fluoroethyl)-1-[4-[4-[(3S)-3-methylmorpholin-4-yl]-6-[1-[(4-methyl-1,3-thiazol-2-yl)sulfonyl]cyclopropyl]pyrimidin-2-yl]phenyl]urea] | 2.13
4 | C[C@H]1COCCN1c1cc(C2(S(=O)(=O)c3ccccn3)CC2)nc(-c2ccc(NC(=O)NCC(F)F)cc2)n1 [Example 64af, 3-(2,2-difluoroethyl)-1-[4-[4-[(3S)-3-methylmorpholin-4-yl]-6-(1-pyridin-2-ylsulfonylcyclopropyl)pyrimidin-2-yl]phenyl]urea] | 3.39
5 | C[C@H]1COCCN1c1cc(C2(S(=O)(=O)c3ccccn3)CC2)nc(-c2ccc(NC(=O)Nc3ccon3)cc2)n1 [Example 64ag, 1-[4-[4-[(3S)-3-methylmorpholin-4-yl]-6-(1-pyridin-2-ylsulfonylcyclopropyl)pyrimidin-2-yl]phenyl]-3-(1,2-oxazol-3-yl)urea] | 2.81
6 | CCNC(=O)Nc1ccc(-c2nc(N3CCOC[C@@H]3C)cc(C3(S(=O)(=O)c4ccc(OC(F)F)cc4)CC3)n2)cc1 [Example 64b, 3-[4-[4-[1-[4-(difluoromethoxy)phenyl]sulfonyl-cyclopropyl]-6-[(3S)-3-methylmorpholin-4-yl]pyrimidin-2-yl]phenyl]-1-ethylurea] | 6.78
7 | C[C@H]1COCCN1c1cc(C2(S(=O)(=O)c3ccc(OC(F)F)cc3)CC2)nc(-c2ccc(NC(=O)Nc3cnn(C)c3)cc2)n1 [Example 64d, 1-[4-[4-[1-[4-(difluoromethoxy)phenyl]sulfonyl-cyclopropyl]-6-[(3S)-3-methylmorpholin-4-yl]pyrimidin-2-yl]phenyl]-3-(1-methylpyrazol-4-yl)urea] | 6.7
8 | C[C@H]1COCCN1c1cc(C2(S(=O)(=O)c3ccc(OC(F)F)cc3)CC2)nc(-c2ccc(NC(=O)NCCF)cc2)n1 [Example 64e, 1-[4-[4-[1-[4-(difluoromethoxy)phenyl]sulfonyl-cyclopropyl]-6-[(3S)-3-methylmorpholin-4-yl]pyrimidin-2-yl]phenyl]-3-(2-fluoroethyl)urea] | 5.37
9 | C[C@H]1COCCN1c1cc(C2(S(=O)(=O)c3ccc(OC(F)F)cc3)CC2)nc(-c2ccc(NC(=O)NCC(F)F)cc2)n1 [Example 64f, 3-(2,2-difluoroethyl)-1-[4-[4-[1-[4-(difluoromethoxy)phenyl]sulfonyl-cyclopropyl]-6-[(3S)-3-methylmorpholin-4-yl]pyrimidin-2-yl]phenyl]urea] | 5.21
10 | CNC(=O)Nc1ccc(-c2nc(N3CCOC[C@@H]3C)cc(C3(S(=O)(=O)c4ccc(F)c(F)c4)CC3)n2)cc1 [Example 64g, 1-[4-[4-[1-(3,4-difluorophenyl)sulfonylcyclopro-pyl]-6-[(3S)-3-methylmorpholin-4-yl]pyrimidin-2-yl]phenyl]-3-methylurea] | 34.2
11 | C[C@H]1COCCN1c1cc(C2(S(=O)(=O)c3ccc(F)c(F)c3)CC2)nc(-c2ccc(NC(=O)NCCF)cc2)n1 [Example 64l, 1-[4-[4-[1-(3,4-difluorophenyl)sulfonylcyclopro-pyl]-6-[(3S)-3-methylmorpholin-4-yl]pyrimidin-2-yl]phenyl]-3-(2-fluoroethyl)urea] | 1.11
12 | C[C@H]1COCCN1c1cc(C2(S(=O)(=O)c3ccc(F)c(F)c3)CC2)nc(-c2ccc(NC(=O)NCC(F)F)cc2)n1 [Example 64m, 3-(2,2-difluoroethyl)-1-[4-[4-[1-(3,4-difluorophenyl)sulfonylcyclo-propyl]-6-[(3S)-3-methylmorpholin-4-yl]pyrimidin-2-yl]phenyl]urea] | 40.8
13 | C[C@H]1COCCN1c1cc(C2(S(=O)(=O)c3ccccc3)CCC2)nc(-c2ccc(NC(=O)NC(C)(C)CO)cc2)n1 [Example 64o, 1-[4-[4-[1-(benzenesulfonyl)cyclobutyl]-6-[(3S)-3-methylmorpholin-4-yl]pyrimidin-2-yl]phenyl]-3-(1-hydroxy-2-methylpropan-2-yl)urea] | 3.45
14 | C[C@H]1COCCN1c1cc(C2(S(=O)(=O)c3ccccc3)CCC2)nc(-c2ccc(NC(=O)NCCCO)cc2)n1 [Example 64r, 1-[4-[4-[1-(benzenesulfonyl)cyclobutyl]-6-[(3S)-3-methylmorpholin-4-yl]pyrimidin-2-yl]phenyl]-3-(3-hydroxypropyl)urea] | 4.18
15 | C[C@H]1COCCN1c1cc(C2(S(=O)(=O)c3ccccc3)CCC2)nc(-c2ccc(NC(=O)NCCF)cc2)n1 [Example 64s, 1-[4-[4-[1-(benzenesulfonyl)cyclobutyl]-6-[(3S)-3-methylmorpholin-4-yl]pyrimidin-2-yl]phenyl]-3-(2-fluoroethyl)urea] | 2.96

The remaining compounds from weak to strong by IC50, led by results:

Row | IC50 [nM] | Structure (SMILES)
16 | 16.1 | C[C@H]1COCCN1c1cc(C2(S(=O)(=O)c3ccc(NCCO)c(F)c3)CC2)nc(-c2ccc(NC(=O)NCCO)cc2)n1 [Example 64n, 1-[4-[4-[1-[3-fluoro-4-(2-hydroxyethylamino)phenyl]sulfon-ylcyclopropyl]-6-[(3S)-3-methylmorpholin-4-yl]pyrimidin-2-yl]phenyl]-3-(2-hydroxyethyl)urea]
17 | 7.78 | C[C@H]1COCCN1c1cc(C2(S(=O)(=O)CCCO)CC2)nc(-c2ccc(NC(=O)NCCF)cc2)n1 [Example 64aj, 3-(2-fluoroethyl)-1-[4-[4-[1-(3-hydroxypropylsulfonyl)cyclopro-pyl]-6-[(3S)-3-methylmorpholin-4-yl]pyrimidin-2-yl]phenyl]urea]
18 | 6.84 | C[C@H]1COCCN1c1cc(C2(S(=O)(=O)c3ccc(Cl)cc3)CC2)nc(-c2ccc(NC(=O)NCC(F)F)cc2)n1 [Example 64ah, 1-[4-[4-[1-(4-chlorophenyl)sulfonylcyclopropyl]-6-[(3S)-3-methylmorpholin-4-yl]pyrimidin-2-yl]phenyl]-3-(2,2-difluoroethyl)urea]
19 | 5.67 | C[C@H]1COCCN1c1cc(C2(S(=O)(=O)c3ccc(Cl)cc3)CC2)nc(-c2ccc(NC(=O)Nc3ccon3)cc2)n1 [Example 64ai, 1-[4-[4-[1-(4-chlorophenyl)sulfonylcyclopropyl]-6-[(3S)-3-methylmorpholin-4-yl]pyrimidin-2-yl]phenyl]-3-(1,2-oxazol-3-yl)urea]
20 | 5.58 | C[C@H]1COCCN1c1cc(C2(S(=O)(=O)c3cnn(C(F)F)c3)CC2)nc(-c2ccc(NC(=O)NCCO)cc2)n1 [Example 64al, 1-[4-[4-[1-[1-(difluoromethyl)pyrazol-4-yl]sulfonylcyclopropyl]-6-[(3S)-3-methylmorpholin-4-yl]pyrimidin-2-yl]phenyl]-3-(2-hydroxyethyl)urea]
21 | 4.67 | C[C@H](CO)NC(=O)Nc1ccc(-c2nc(N3CCOC[C@@H]3C)cc(C3(S(=O)(=O)c4ccccc4)CCC3)n2)cc1 [Example 64q, 1-[4-[4-[1-(benzenesulfonyl)cyclobutyl]-6-[(3S)-3-methylmorpholin-4-yl]pyrimidin-2-yl]phenyl]-3-[(2R)-1-hydroxypropan-2-yl]urea]
22 | 3.98 | C[C@@H](CO)NC(=O)Nc1ccc(-c2nc(N3CCOC[C@@H]3C)cc(C3(S(=O)(=O)c4ccccc4)CCC3)n2)cc1 [Example 64p, 1-[4-[4-[1-(benzenesulfonyl)cyclobutyl]-6-[(3S)-3-methylmorpholin-4-yl]pyrimidin-2-yl]phenyl]-3-[(2S)-1-hydroxypropan-2-yl]urea]
23 | 2.15 | C[C@H]1COCCN1c1cc(C2(S(=O)(=O)c3ccc(OC(F)F)cc3)CC2)nc(-c2ccc(NC(=O)NCCO)cc2)n1 [Example 64c, 1-[4-[4-[1-[4-(difluoromethoxy)phenyl]sulfonyl-cyclopropyl]-6-[(3S)-3-methylmorpholin-4-yl]pyrimidin-2-yl]phenyl]-3-(2-hydroxyethyl)urea]
24 | 1.61 | C[C@H]1COCCN1c1cc(C2(S(=O)(=O)CCCO)CC2)nc(-c2ccc(NC(=O)Nc3ccon3)cc2)n1 [Example 64ak, 1-[4-[4-[1-(3-hydroxypropylsulfonyl)cyclopro-pyl]-6-[(3S)-3-methylmorpholin-4-yl]pyrimidin-2-yl]phenyl]-3-(1,2-oxazol-3-yl)urea]
25 | 1.48 | CCNC(=O)Nc1ccc(-c2nc(N3CCOC[C@@H]3C)cc(C3(S(=O)(=O)c4ccc(F)c(F)c4)CC3)n2)cc1 [Example 64h, 3-[4-[4-[1-(3,4-difluorophenyl)sulfonylcyclopro-pyl]-6-[(3S)-3-methylmorpholin-4-yl]pyrimidin-2-yl]phenyl]-1-ethylurea]
26 | 1.44 | C[C@H]1COCCN1c1cc(C2(S(=O)(=O)c3ccc(F)c(F)c3)CC2)nc(-c2ccc(NC(=O)Nc3cnn(C)c3)cc2)n1 [Example 64k, 1-[4-[4-[1-(3,4-difluorophenyl)sulfonylcyclopro-pyl]-6-[(3S)-3-methylmorpholin-4-yl]pyrimidin-2-yl]phenyl]-3-(1-methylpyrazol-4-yl)urea]
27 | 1.35 | C[C@H]1COCCN1c1cc(C2(S(=O)(=O)c3ccc(F)c(F)c3)CC2)nc(-c2ccc(NC(=O)NC3CC3)cc2)n1 [Example 64i, 3-cyclopropyl-1-[4-[4-[1-(3,4-difluorophenyl)sulfonylcyclopro-pyl]-6-[(3S)-3-methylmorpholin-4-yl]pyrimidin-2-yl]phenyl]urea]
28 | 1.2 | C[C@H]1COCCN1c1cc(C2(S(=O)(=O)c3ccc(F)c(F)c3)CC2)nc(-c2ccc(NC(=O)NCCO)cc2)n1 [Example 64j, 1-[4-[4-[1-(3,4-difluorophenyl)sulfonylcyclopro-pyl]-6-[(3S)-3-methylmorpholin-4-yl]pyrimidin-2-yl]phenyl]-3-(2-hydroxyethyl)urea]
